The values that follow come from patent US12528802B2, “Heterocyclic compound” (Takeda Pharmaceutical Company Limited, priority 2019, dated 2026).

The target of one experiment is T1, glucosylceramide synthase (Homo sapiens, UniProt Q16739).
T1 construct: made in house; host or cells: Expi293F cells (transient expression, pcDNA3.3-TOPO vector); microsome fraction used as enzyme source
T1 sequence (Q16739 1-394): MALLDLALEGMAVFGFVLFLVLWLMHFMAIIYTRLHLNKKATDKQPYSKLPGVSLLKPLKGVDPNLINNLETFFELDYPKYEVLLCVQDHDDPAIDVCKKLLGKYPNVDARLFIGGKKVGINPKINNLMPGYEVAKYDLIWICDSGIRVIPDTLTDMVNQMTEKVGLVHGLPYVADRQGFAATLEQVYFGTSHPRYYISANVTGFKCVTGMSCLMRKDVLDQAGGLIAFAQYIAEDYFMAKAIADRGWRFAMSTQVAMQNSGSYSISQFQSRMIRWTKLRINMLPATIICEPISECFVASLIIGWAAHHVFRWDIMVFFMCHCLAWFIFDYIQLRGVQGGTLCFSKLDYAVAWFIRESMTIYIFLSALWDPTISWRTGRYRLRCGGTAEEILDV
The experiment is described as follows: Glucosylceramide synthase (GCS) enzyme assay, microsome fraction, C8 glucosylceramide quantified by Rapidfire MS/MS. In kind it is biochemical. The note with it: test compound 10 μM; 1.7 μM UDP-glucose, 3 μM C8 ceramide; room temperature 60 min. As for the experimental part:
Glucosylceramide Synthase (GCS) Assay
In enzyme assay, a microsome fraction obtained by transient expression by Expi293F™ cells (catalog number: A14527, Thermo Fisher Scientific) was used as a glucosylceramide synthase source. Liposomal C8 ceramide and UDP-glucose were used as substrates. […] After the enzymatic reaction, the analysis was performed with Rapidfire MS/MS (API-4000™, SCIEX), and C8 glucosylceramide was quantified to evaluate the inhibitory activity of the test compound against glucosylceramide synthase activity.
PcDNA3.3TOPO vector (catalog number: K830001, Thermo Fisher Scientific) into which the human GCS gene was inserted was introduced into Expi293F™ Cells (catalog number: A14527, Thermo Fisher Scientific) by using ExpiFectamine™ 293 Transfection Kit (catalog number: A14525, Thermo Fisher Scientific). The cultured cells were dissolved in D-PBS (catalog number: 048-29805, Fuji Film Wako Pure Chemical Industries, Ltd.) containing 1 mM PMSF, and the solution was allowed to stand on ice for 30 minutes, and then subjected to cell disruption (homogenized). The disruption solution was centrifuged at 10,000×g for 20 minutes at 4° C., and the obtained supernatant was centrifuged at 142,400×g for 60 minutes at 4° C. The obtained precipitate was resuspended in a D-PBS solution containing 1 mM PMSF, and homogenized again to prepare as a microsome fraction. Protein quantification was performed by the CBB method.
A 1 mM compound solution prepared by dissolving the test compound in DMSO was added to a 384-well plate by 100 nL so that the final concentration of the test compound was 10 μM. Next, a substrate solution consisting of 3.4 μM UDP-glucose and 6 μM C8 ceramide was added by 5 μL, followed by an enzyme solution consisting of a 25 μg/mL microsome fraction by 5 μL. C8 ceramide was prepared from liposomes composed of 15 mol % C8 ceramide and 85 mol % dioleoyl phosphatidylcholine (1,2-dioleoyl-sn-glycero-3-phosphocholine: DOPC). The enzymatic reaction was carried out in a solution consisting of 20 mM tris-hydrochloric acid buffer (pH 7.5), 0.01% Tween 20, 0.01% bovine serum albumin and 1 mM dithiothreitol at room temperature for 60 min. Then, a solution consisting of 75% isopropanol and 1% formic acid containing 0.25 μM N-Octadecanoyl-D35-psichosine (catalog number: 1914, Matreya) as an internal standard substance was added by 60 μL to stop the enzymatic reaction. 5 μL of the centrifugal supernatant of the obtained reaction product was analyzed by Rapidfire MS/MS (Agilent Technologies) using API-4000™ (SCIEX), and the C8 glucosylceramide was quantified to evaluate the inhibitory activity of the test compound against the glucosylceramide synthase activity. The inhibitory activity of the test compound was evaluated when the C8 glucosylceramide level in the enzyme-free solution was considered as 100% inhibitory and the enzyme activity of the DMSO group in the absence of the compound was considered as 0% inhibitory.
In the case of `O=C1c2ccnc(-c3ccc(F)cc3OCC(F)(F)F)c2CN1c1ccc(C2(O)CCOC2)c(F)c1` (racemic) [Example 235, rac-2-[3-fluoro-4-(3-hydroxyoxolan-3-yl)phenyl]-4-[4-fluoro-2-(2,2,2-trifluoroethoxy)phenyl]-2,3-dihydro-1H-pyrrolo[3,4-c]pyridin-1-one], the “GCS enzyme inhibitory rate at 10 μM (%) (% of control)” value stood at 97%.
The same measure, in the same setting: next, `O=C1c2ccnc(-c3ccc(F)cc3OCC(F)(F)F)c2CN1c1ccc(C2(O)CCOC2)c(F)c1` (racemic) [Example 238, rac-2-[3-fluoro-4-(3-hydroxyoxolan-3-yl)phenyl]-4-[4-fluoro-2-(2,2,2-trifluoroethoxy)phenyl]-2,3-dihydro-1H-pyrrolo[3,4-c]pyridin-1-one]: 95%.

Still in this experiment, the particulars now being: test compound 10 μM; 1.7 μM UDP-glucose, 3 μM C8 ceramide; room temperature 60 min; read-out: GCS enzyme inhibitory rate at 10 μM (%) (% of control).
Take `O=C1c2ccnc(-c3ccc(F)cc3OCC(F)(F)F)c2CN1c1ccc(C2(O)CCOC2)c(F)c1` (racemic) [Example 223, rac-2-[3-fluoro-4-(3-hydroxyoxolan-3-yl)phenyl]-4-[4-fluoro-2-(2,2,2-trifluoroethoxy)phenyl]-2,3-dihydro-1H-pyrrolo[3,4-c]pyridin-1-one]: the inhibition at 10 µM stood at 96%.
Same read-out and setting: in the case of `CC(c1ccc(N2Cc3c(ccnc3-c3ccc(F)cc3OCC(F)(F)F)C2=O)cc1)N1CCCC1=O` (racemic) [Example 232, rac-4-[4-fluoro-2-(2,2,2-trifluoroethoxy)phenyl]-2-{4-[1-(2-oxopyrrolidin-1-yl)ethyl]phenyl}-2,3-dihydro-1H-pyrrolo[3,4-c]pyridin-1-one] it was 82%; in that of `O=C1c2ccnc(-c3ccccc3OCC(F)(F)F)c2CN1c1ccc(C(O)C(F)(F)F)nc1` (racemic) [Example 249, rac-4-[2-(2,2,2-trifluoroethoxy)phenyl]-2-[6-(2,2,2-trifluoro-1-hydroxyethyl)pyridin-3-yl]-2,3-dihydro-1H-pyrrolo[3,4-c]pyridin-1-one], 98%; in that of `O=C1c2ccnc(-c3ccc(F)cc3OCC(F)(F)F)c2CN1c1ccc(C(O)C(F)F)cc1` (racemic) [Example 250, rac-2-[4-(2,2-difluoro-1-hydroxyethyl)phenyl]-4-[4-fluoro-2-(2,2,2-trifluoroethoxy)phenyl]-2,3-dihydro-1H-pyrrolo[3,4-c]pyridin-1-one], 99%.
On to `O=C1c2ccnc(-c3ccc(F)cc3OCC(F)(F)F)c2CN1c1ccc(C(O)C(F)(F)F)cc1` (racemic) [Example 251, rac-4-[4-fluoro-2-(2,2,2-trifluoroethoxy)phenyl]-2-[4-(2,2,2-trifluoro-1-hydroxyethyl)phenyl]-2,3-dihydro-1H-pyrrolo[3,4-c]pyridin-1-one], for which the inhibition at 10 µM worked out at 96%.
Still for that read-out and setting: next, `O=C1c2ccnc(-c3ccc(F)cc3OCC(F)(F)F)c2CN1c1ccc(C2(O)CCOC2)cn1` (racemic) [Example 256, rac-4-[4-fluoro-2-(2,2,2-trifluoroethoxy)phenyl]-2-[5-(3-hydroxyoxolan-3-yl)pyridin-2-yl]-2,3-dihydro-1H-pyrrolo[3,4-c]pyridin-1-one]: 97%; `CC(O)c1ccc(N2Cc3c(ccnc3-c3ccccc3OCC(F)(F)F)C2=O)cc1` (racemic) [Example 280, rac-2-[4-(1-hydroxyethyl)phenyl]-4-[2-(2,2,2-trifluoroethoxy)phenyl]-2,3-dihydro-1H-pyrrolo [3,4-c]pyridin-1-one]: 99%.
The same measure, in the same setting: next, `CC(O)c1ccc(N2Cc3c(ccnc3-c3ccc(F)cc3OCC(F)(F)F)C2=O)cc1` (racemic) [Example 282, rac-4-[4-fluoro-2-(2,2,2-trifluoroethoxy)phenyl]-2-[4-(1-hydroxyethyl)phenyl]-2,3-dihydro-1H-pyrrolo[3,4-c] pyridin-1-one]: 99%; `CC(O)c1ccc(N2Cc3c(ccnc3-c3ccc(F)cc3OCC(F)(F)F)C2=O)cc1F` (racemic) [Example 292, rac-2-[3-fluoro-4-(1-hydroxyethyl)phenyl]-4-[4-fluoro-2-(2,2,2-trifluoroethoxy)phenyl]-2,3-dihydro-1H-pyrrolo [3,4-c]pyridin-1-one]: 99%; `O=C1c2ccnc(-c3ccc(F)cc3OCC(F)(F)F)c2CN1c1ccc(C(O)C(F)(F)F)c(F)c1` (racemic) [Example 293, rac-4-[4-fluoro-2-(2,2,2-trifluoroethoxy)phenyl]-2-[3-fluoro-4-(2,2,2-trifluoro-1-hydroxyethyl)phenyl]-2,3-dihydro-1H-pyrrolo [3,4-c]pyridin-1-one]: 88%.
On the same count and under the same terms, in the case of `CC(O)(c1ccc(N2Cc3c(ccnc3-c3ccccc3OCC(F)(F)F)C2=O)cc1)C(F)(F)F` (racemic) [Example 295, rac-4-[2-(2,2,2-trifluoroethoxy)phenyl]-2-[4-(1,1,1-trifluoro-2-hydroxypropan-2-yl)phenyl]-2,3-dihydro-1H-pyrrolo[3,4-c]pyridin-1-one] it was 100%; in that of `CC(O)(c1ccc(N2Cc3c(ccnc3-c3ccc(F)cc3OCC(F)(F)F)C2=O)cc1)C(F)F` (racemic) [Example 296, rac-2-[4-(1,1-difluoro-2-hydroxypropan-2-yl)phenyl]-4-[4-fluoro-2-(2,2,2-trifluoroethoxy)phenyl]-2,3-dihydro-1H-pyrrolo[3,4-c]pyridin-1-one], 100%.
In the case of `CC(O)(c1ccc(N2Cc3c(ccnc3-c3ccccc3OCC(F)(F)F)C2=O)cc1)C(F)F` (racemic) [Example 308, rac-2-[4-(1,1-difluoro-2-hydroxypropan-2-yl)phenyl]-4-[2-(2,2,2-trifluoroethoxy)phenyl]-2,3-dihydro-1H-pyrrolo[3,4-c]pyridin-1-one], the inhibition at 10 µM stood at 100%.
For the molecule `CC(O)(c1ccc(N2Cc3c(ccnc3-c3ccc(F)cc3OCC(F)(F)F)C2=O)cc1)C(F)(F)F` (racemic) [Example 312, rac-4-[4-fluoro-2-(2,2,2-trifluoroethoxy)phenyl]-2-[4-(1,1,1-trifluoro-2-hydroxypropan-2-yl)phenyl]-2,3-dihydro-1H-pyrrolo [3,4-c]pyridin-1-one], the inhibition at 10 µM came out at 99%.
Take `O=C1c2ccnc(-c3ccccc3OCC(F)(F)F)c2CN1c1ccc(C(O)C2CC2)nc1` (racemic) [Example 317, rac-2-{6-[cyclopropyl(hydroxy)methyl]pyridin-3-yl}-4-[2-(2,2,2-trifluoroethoxy)phenyl]-2,3-dihydro-1H-pyrrolo[3,4-c]pyridin-1-one]: the inhibition at 10 µM was 99%.
With `O=C1c2ccnc(-c3ccccc3OCC(F)(F)F)c2CN1c1ccc(C(O)C2CC2)cc1` (racemic) [Example 329, rac-2-{4-[cyclopropyl(hydroxy)methyl]phenyl}-4-[2-(2,2,2-trifluoroethoxy)phenyl]-2,3-dihydro-1H-pyrrolo[3,4-c]pyridin-1-one], the inhibition at 10 µM came to 100%.
With `COC(=O)c1ccc(N2CC3=C(OC(C)CN=C3c3ccccc3OCC(F)(F)F)C2=O)cc1` (racemic) [Example 332, rac-methyl 4-{2-methyl-8-oxo-5-[2-(2,2,2-trifluoroethoxy)phenyl]-2,3,6,8-tetrahydro-7H-pyrrolo [3,4-f][1,4]oxazepin-7-yl}benzoate], the inhibition at 10 µM was 96%.
Same read-out and setting: next, `CC(O)c1cc2c(c(-c3ccccc3OCC(F)(F)F)n1)CN(c1ccc(OCC(F)(F)F)cc1)C2=O` (racemic) [Example 341, rac-6-(1-hydroxyethyl)-4-[2-(2,2,2-trifluoroethoxy)phenyl]-2-[4-(2,2,2-trifluoroethoxy)phenyl]-2,3-dihydro-1H-pyrrolo[3,4-c]pyridin-1-one]: 100%.
